Publication PMC8169650, “Identification of Small Molecule Inhibitors of a Mir155 Transcriptional Reporter in Th17 Cells” (Scientific Reports, 2021)
Like-named read-outs stand apart in the source and are kept apart here.

Experiments:
Mir155 reporter = Mir155 reporter Beta-Glo HTS assay (β-gal activity); type: cell-based, mouse; conditions: Mus musculus, 48 h, read-out: EC50, inhibition of Mir155 reporter expression
Protocol: To develop an assay for the HTS screen, CD4^+ T cells were purified from spleen and lymph nodes of the Mir155 reporter mice. The purified CD4^+ T cells were cultured under Th17 cell-polarizing conditions in twelve well plates following which differentiated Th17 cells were transferred and expanded in six well plates followed by a resting period of 2 days in T cell media (schema depicted in Fig. 1a). We first optimized the cell number to maximize the assay window. To this end, differentiated Th17 cells were plated at different cell densities in the wells of polystyrene 1536-well plates under Th17 polarizing conditions. T cell activation was accomplished using two protocols. In the first protocol, magnetic beads coupled to anti-CD3 and anti-CD28 antibodies (CD3/CD28 microbeads) were added to mediate T cell activation as induction of MiR155 expression requires engagement of the TCR CD3 complex (signal 1) plus the co-stimulatory molecule CD28 (signal 2). The cells along with the beads were incubated at 37 °C, 5% CO2 for 48 h and, subsequently, high-throughput quantitation of β-gal activity was performed after 30 min of incubation using the Beta-Glo Assay system (Fig. 1b).
The NPC collection was screened at seven concentrations (top concentration 46 µM; 1:5 dilution thereafter) and drug response curves for the compounds were generated using our qHTS curve class classification algorithm as described above.
CD4^+ cells were purified from spleens and lymph nodes of Mir155 reporter mice as described above. Briefly, single cell suspensions were prepared by mechanical disruption followed by lysis of red blood cells with 0.83% ammonium chloride. CD4^+ T cells were either isolated by FACS sorting (BD FACS Aria) or were positively selected using magnetic CD4 microbeads (Miltenyi Biotec)[43]. 1 million CD4^+ cells/well were cultured in anti-CD3/CD28 (1 µg/ml each) coated 12 well plates under Th17 polarization conditions following which differentiated Th17 cells were transferred and expanded in six well plates followed by a resting period of 2 days in T cell media. A cocktail containing 10 ng/ml each of IL-6, IL-1 β, IL-21 and TGF-β (0.5 ng/ml) and IFNγ, IL-4, IL-12 neutralizing antibodies (10 μg/ml) was used for the Th17 polarizing conditions. For the HTS assay, 2000 differentiated Th17 cells/well in Th17 polarizing media were added to Greiner-one high base solid bottom white tissue culture treated 1536 well plates (catalog # 789173-F) using a small cassette and a Multidrop Combi dispenser (Thermo Fisher Scientific Inc.,Waltham, MA). Compounds were added using a Kalypsys pintool (Columns 5–48) and magnetic beads coupled to anti-CD3 and anti-CD28 (CD3/CD28 microbeads) were added to mediate T cell activation. CD3/CD28 microbeads were not added to first 2 columns and those wells served as basal control. DMSO was added to columns 3 and 4 and served as 100% signal. The plates were incubated for 48 h at 37 °C, 5% CO2, 95% humidity covered with low evaporation stainless steel lids from Kalypsys. After 48 h of incubation, 5 µl of Beta-Glo reagent (Beta Glo Assay System, Promega) was added using a Bioraptor Flying Reagent Dispenser (Aurora Discovery-BD) and the plates were incubated at room temperature for 30 min. Luminescence signal was captured using a 10 s exposure with a ViewLux (Perkin Elmer) containing a luminescent filter. Beta Glo reagent consists of Beta Glo substrate and buffer that are combined to form the Beta Glo reagent (Beta Glo Assay System, Promega).

[1] = tested on: IL-17 production in Th17 cells; test: Intracellular IL-17 flow cytometric cytokine assay under Th17 polarization; type: cell-based, mouse; conditions: for IL-17+ cells, gated on live CD4+CD44high cells: DMSO 32% (panel b), 36.8% (panel c); for inhibition at 20 µM: Mus musculus, 96 h, read-out: down-regulation (inhibition) of IL-17 production compared to control
Protocol: (§1) It has been previously shown that IL-17 production is defective in miR-155 deficient cells. […] To test the hit compounds for IL-17 downregulation, we purified naive CD4^+ T cells from C57BL/6 mice and cultured them under Th17 polarization condition. Small molecules at multiple concentrations (20 µM, 10 µM and 5 µM) were added 18 h post-plating of CD4^+ T cells on anti-CD3/CD28 coated plates and again on day 2 of culture (schema depicted in Fig. 3a).
(§2) Spleens and lymph nodes were harvested from mice and single cell suspensions were prepared by mechanical disruption followed by lysis of red blood cells with 0.83% ammonium chloride. CD4^+ T cells were either isolated by FACS sorting (BD FACS Aria) or were positively selected using magnetic CD4 microbeads (Miltenyi Biotec). For intracellular IL-17 quantitation by flow cytometry, 0.25 million cells/ well were plated in anti-CD3/CD28 (1 µg/ml) coated 48 well plates. A cocktail containing 10 ng/ml each of IL-6, IL-1 β, IL-21 and TGF-β (0.5 ng/ml) and IFNγ, IL-4, IL-12 neutralizing antibodies (10 μg/ml) was used for the Th17 polarizing conditions. All recombinant cytokines were purchased from R&D Systems and crosslinking antibodies were purified from hybridomas (Harlan). Cells were treated with small molecules at indicated concentrations at 18 h and 48 h of cell plating. On day 4 of the culture, cells were stimulated with 20 ng/ml of phorbol 12-myristate 13-acetate (PMA) and ionomycin (1 μg/ml) for 4 h in the presence of brefeldin A. Following stimulation, cells were stained with fixable viability dye (eBioscience) and surface stained for CD44 and CD4, permeabilized using cytofix/cytoperm (BD biosciences) and subsequently, stained for intracellular IL-17. Foxp3/Transcription Factor Staining kit (eBioscience) kit was used for intranuclear staining of RORγt. Samples were acquired on BD Fortessa and analyzed using Flowjo (Tree star Inc).

[2] = tested on: Th17 cells from Mir155 reporter mice; test: HTS viability assay (CellTiter-Glo); type: cell-based, mouse; conditions: primary Th17 cells
Protocol: Next, the HTS assay was further validated for robustness by screening LOPAC1280, a collection of 1280 pharmacologically active compounds. The LOPAC collection contains biologically annotated compounds with diverse mechanism(s) including but not limited to pharma-developed tools, receptor ligands and approved drugs. Seven concentrations of each compound were assayed, ranging from 3 nM to 46 µM as five-fold dilutions. One assay plate was treated with DMSO to determine the assay robustness in the absence of compounds (Fig. 1d). A total of eight assay plates including DMSO plate were tested in the LOPAC pilot screen and the median assay parameter per plate was 21-fold signal-to-background (S/B) ratio and the median Z’-factor was 0.72 (Fig. 1e), thus further validating the robustness of this assay in a 1536-well format. Data was analyzed using a curve class classification algorithm which classifies dose responses in four categories (Class 1, 2, 3 and 4) based on the quality of curve fit to the data (r^2), the magnitude of the response (efficacy), and the number of asymptotes to the calculated curve. Compounds with a curve class of either − 1.1, − 1.2, − 2.1, − 2.2 in the primary assay were classified as pharmacologically active compounds. […] The LOPAC collection was additionally tested for toxic effects using the CellTiter-Glo Luminescent Cell Viability Assay (Promega) which measures ATP levels as a proxy for number of live cells to exclude toxic compounds. […] An ideal compound should antagonize Mir155 reporter with minimal effect on cell viability.
For the HTS viability assay, the T cells were purified, polarized, plated and treated with compounds as described above for HTS β-gal assay except Columns 1 and 2 had no cells and served as basal control. After 48 h of incubation, 3 μL of CellTiter-Glo reagent (Promega) was added using a Bioraptor Flying Reagent Dispenser (Aurora Discovery-BD)[50]. The plates were incubated for 15 min at room temperature and the luminescence signal was captured using a ViewLux (Perkin Elmer) containing a luminescent filter. […]

[3] = LC-MS analysis of compound stability
Protocol: We analyzed by liquid chromatography mass spectrometry (LC–MS) the 10 mM compound stock solutions in DMSO, stored at − 20 °C, that were used in the screening (older batch) versus the “fresh” solutions. […] Sample 2 is another sample that had been kept outside at room temperature for 30 days before evaluation.

CD4+ T cells = test: Viability dye and CD44 activation staining in the IL-17 flow cytometric assay; type: cell-based; conditions: Fig. S2a
Protocol: as §1, §2

[4] = Th17 cells from Mir155 reporter mice, β-gal signal

stability by LC–MS [3] | EC50 (Mir155 reporter; [4]) [nM] | SMILES | EC50 (Mir155 reporter) [nM] | IL-17+ cells, gated on live CD4+CD44high cells ([1]; 20 µM) [%] | inhibition at 20 µM ([1]; CD4+ T) [%] | cytotoxicity / cell viability [2] | IL-17 / RORγt plot, percent cells, gated on live CD4+CD44high ([1]; Fig. S2b, DMSO 32.4% / 21.2%) [%] | inhibition at 20 µM ([1]; 20 µM, day 4, C57BL/6 CD4+ T cells) [%] | live cells (fixable viability dye, Live-dead) (CD4+ T cells; DMSO 77.4% / 80.6%) [%] | CD4+ CD44+ cells (CD4+ T cells; DMSO 97.2% / 98.2%) [%] | effect on IL-17 production ([1]; C57BL/6 CD4+ T cells, Th17 polarization)
stable and pure | 140 | O=C(Nc1ncc([N+](=O)[O-])s1)c1cccs1 [tenonitrozole, reference compound] | – | 10.4 | – | not because of toxicity of the compounds | 9.3 | 68 | 70.6 | 96.4 | –
stable and pure | 5500 | c1ccc2[nH]c(-c3cscn3)nc2c1 [thiabendazole, reference compound] | – | 31 | – | not because of toxicity of the compounds | – | – | – | – | did not affect IL-17 production

SMILES | stability by LC–MS [3] | EC50 (Mir155 reporter; [4]) [nM] | EC50 (Mir155 reporter) [nM] | IL-17+ cells, gated on live CD4+CD44high cells ([1]; 20 µM) [%] | inhibition at 20 µM ([1]; CD4+ T) [%] | cytotoxicity / cell viability [2] | IL-17 / RORγt plot, percent cells, gated on live CD4+CD44high ([1]; Fig. S2b, DMSO 32.4% / 21.2%) [%] | inhibition at 20 µM ([1]; 20 µM, day 4, C57BL/6 CD4+ T cells) [%] | live cells (fixable viability dye, Live-dead) (CD4+ T cells; DMSO 77.4% / 80.6%) [%] | CD4+ CD44+ cells (CD4+ T cells; DMSO 97.2% / 98.2%) [%] | effect on IL-17 production ([1]; C57BL/6 CD4+ T cells, Th17 polarization)
CCCSc1ccc2nc(NC(=O)OC)[nH]c2c1 [albendazole, reference compound] | stable and pure | – | 2500 | 14.2 | 55 | not because of toxicity of the compounds | – | – | – | – | –
